In the assay the target is T1, TRAP1 enzyme (Homo sapiens, UniProt Q12931).
T1 sequence (Q12931 60-704): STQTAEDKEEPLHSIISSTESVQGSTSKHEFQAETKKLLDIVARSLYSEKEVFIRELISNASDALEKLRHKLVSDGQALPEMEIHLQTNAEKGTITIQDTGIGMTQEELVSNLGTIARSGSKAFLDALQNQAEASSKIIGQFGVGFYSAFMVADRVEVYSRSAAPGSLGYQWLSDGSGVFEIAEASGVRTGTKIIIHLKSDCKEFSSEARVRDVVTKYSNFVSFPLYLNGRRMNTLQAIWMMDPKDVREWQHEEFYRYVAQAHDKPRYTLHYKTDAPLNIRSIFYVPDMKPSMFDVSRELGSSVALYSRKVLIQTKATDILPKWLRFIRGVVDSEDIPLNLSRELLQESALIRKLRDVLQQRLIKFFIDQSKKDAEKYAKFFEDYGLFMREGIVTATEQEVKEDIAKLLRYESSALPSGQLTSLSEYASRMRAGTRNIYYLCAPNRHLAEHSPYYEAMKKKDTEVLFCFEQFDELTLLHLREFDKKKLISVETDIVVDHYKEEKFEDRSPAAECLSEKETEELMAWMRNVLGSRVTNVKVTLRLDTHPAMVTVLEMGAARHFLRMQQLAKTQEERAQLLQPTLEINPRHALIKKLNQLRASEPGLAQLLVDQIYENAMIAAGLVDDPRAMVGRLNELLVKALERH
The assay can be described thus: Malachite green phosphate assay of TRAP1 ATPase activity. As to conditions: for EC50: TRAP1 ATPase activation, 150 nM Trap1, 20 μM ATP, geometric mean, read-out: Malachite Green Fluor DRC: GeoMean EC50; for Emax: read-out: Malachite Green Fluor DRC: Mean Emax. Format: biochemical. Here is the method:
The Potency of test compounds to modulate the ATPase activity of TRAP1 enzyme was evaluated using malachite green phosphatase assay. The assay is based on quantification of the green complex formed between Malachite Green, molybdate and inorganic phosphate generated in the phosphatase reaction. Assays were performed using a Malachite Green assay kit. All the assays were carried out in a 96-well transparent plate. The buffer used was 50 mM HEPES (pH 7.5), 20 mM KCl, 4 mM MgCl2 and 0.05% BSA. 150 nM Trap1 enzyme was incubated with various concentrations of the test compound (0.78 μM-100 μM) at 37° C. for 30 mins. 20 μM ATP was added to each well (except blank wells) to start the reaction and the plate was then incubated at 37° C. for 180 mins. 10 μl of the reaction volume of each sample was then transferred to a white 384-well proxiplate in quadruplets. 2.5 μl of Malachite Green reagent was added to all the wells and the plate was equilibrated for 15 mins. The reaction was stopped by adding 12% H2SO4 and the plate was read for fluorescence at 620 nm (λex=573 nm). The amount of phosphate released was estimated from a phosphate standard curve generated at the same experimental conditions. Emax (Maximal percent activation) and EC50 (concentration of test compound for half maximal activation) were estimated by fitting the dose response data to a sigmoidal curve fitting equation using Graphpad Prism software V.7.0.

Take `CCc1ccc(NC(=O)c2ncco2)cc1S(=O)(=O)Nc1ccc(C(F)(F)F)cc1` [Compound 316]: the EC50 fell in the range of 20 to 100 µM and the Emax lay within 200 to 300%.

Regarding `O=C(Nc1ccc(F)c(S(=O)(=O)Nc2ccc(F)cc2)c1)c1cnc(C(F)(F)F)[nH]1` [Compound 220], the EC50 is 10 to 20 µM and the Emax is 160 to 199%.

`COc1ccc(NC(=O)c2oc(C(F)(F)F)nc2C)cc1S(=O)(=O)Nc1ccc(Br)cc1` [Compound 315]: the EC50 is 10 to 20 µM and the Emax fell in the range of 160 to 199%.

Turning to `COc1ccc(NC(=O)c2cnc[nH]2)cc1S(=O)(=O)N(CCCCCCBr)c1ccc(Br)cc1` [Compound 251, N-(3-(N-(6-bromohexyl)-N-(4-bromophenyl)sulfamoyl)-4-methoxyphenyl)-1H-imidazole-5-carboxamide], the EC50 was < 10 µM and the Emax lay in the range of 200 to 300%.

For `COc1ccc(NC(=O)c2cnc(C(F)(F)F)[nH]2)cc1S(=O)(=O)Nc1cccc(C(C)(C)C)c1` [Compound 368], the EC50 is 20 to 100 µM and the Emax fell in the range of 200 to 300%.

In the case of `COc1ccc(NC(=O)c2ncc(-c3ccccc3)o2)cc1S(=O)(=O)Nc1c(Cl)cccc1Cl` [Compound 451], the EC50 was < 10 µM and the Emax lay within 123 to 159%.

For the compound `O=C(Nc1ccc(F)c(S(=O)(=O)Nc2ccc(Cl)cc2)c1)c1cc(Cl)ncc1C(F)(F)F` [Compound 743], the EC50 lay within 20 to 100 µM and the Emax is 200 to 300%.

Turning to `COc1ccc(NC(=O)c2oc(-c3ccccc3)nc2C)cc1S(=O)(=O)Nc1ccc(Cl)cc1` [Compound 488], the EC50 fell in the range of 10 to 20 µM and the Emax is 200 to 300%.

For `COc1ccc(NC(=O)c2cnc(C(F)(F)F)[nH]2)cc1S(=O)(=O)N(CCCCCCO)c1ccc(Br)cc1` [Compound 257], the EC50 lay in the range of 20 to 100 µM and the Emax was > 300%.

As to `Cc1ccc(NS(=O)(=O)c2cc(NC(=O)c3ncc(-c4ccccc4)o3)ccc2CC(=O)O)cc1` [Compound 541], the EC50 lay within 20 to 100 µM and the Emax is 200 to 300%.

Consider `COc1ccc(NC(=O)c2cnc(C(F)(F)F)[nH]2)cc1S(=O)(=O)N(CCCCCN1CCCC1)c1ccc(Br)cc1` [Compound 439], for which the EC50 lay within 20 to 100 µM and the maximal effect (Emax) is 160 to 199%.

Consider `COc1ccc(NC(=O)c2ocnc2C)cc1S(=O)(=O)Nc1ccc(Br)cc1` [Compound 299], for which the 50% effective concentration (EC50) is 20 to 100 µM and the maximal response (Emax) was in the range of 160 to 199%.

As to `COc1ccc(NC(=O)c2nccs2)cc1S(=O)(=O)Nc1ccc(F)cc1` [Compound 345], the EC50 was 20 to 100 µM and the Emax fell in the range of 200 to 300%.

For `COc1ccc(NC(=O)c2nccs2)cc1S(=O)(=O)Nc1ccc(Br)cc1` [Compound 304], the concentration giving a half-maximal response (EC50) fell in the range of 10 to 20 µM and the Emax was 200 to 300%.

On to `CCc1ccc(NC(=O)c2cnc(-c3ccccc3)[nH]2)cc1S(=O)(=O)Nc1ccc(Br)cc1` [Compound 170], for which the EC50 was < 10 µM and the Emax lay within 160 to 199%.

As for `COc1ccc(NC(=O)c2cnc(-c3ccccc3)[nH]2)cc1S(=O)(=O)Nc1ccc(F)cc1` [Compound 171], the EC50 was < 10 µM and the Emax lay in the range of 200 to 300%.

Turning to `O=C(Nc1ccc(F)c(S(=O)(=O)Nc2ccc(Br)cc2)c1)c1cnc(-c2ccccc2)[nH]1` [Compound 168], the concentration giving a half-maximal response (EC50) was in the range of 10 to 20 µM and the Emax fell in the range of 200 to 300%.

Turning to `COc1ccc(NC(=O)c2cnc(-c3ccccc3)o2)cc1S(=O)(=O)Nc1c(C)cccc1C` [Compound 470], the EC50 is < 10 µM and the maximal effect (Emax) was in the range of 200 to 300%.

For `COc1ccc(NC(=O)c2cnc(-c3ccc(Cl)cc3)[nH]2)cc1S(=O)(=O)Nc1ccc(Br)cc1` [Compound 415], the EC50 is < 10 µM and the Emax fell in the range of 123 to 159%.

As to `COc1ccc(NC(=O)c2ccc3cnccc3n2)cc1S(=O)(=O)Nc1c(C)cccc1C` [Compound 1047], the EC50 lay in the range of 10 to 20 µM and the Emax fell in the range of 160 to 199%.

Take `O=C(Nc1cccc(S(=O)(=O)N2CCOc3cc(F)ccc32)c1)c1ncco1` [Compound 377]: the EC50 fell in the range of 20 to 100 µM and the Emax is 160 to 199%.

Turning to `COc1ccc(NC(=O)c2cnccc2C)cc1S(=O)(=O)Nc1ccc(C)cc1` [Compound 54], the EC50 fell in the range of 20 to 100 µM and the Emax fell in the range of 160 to 199%.

For the compound `COc1ccc(NC(=O)c2cnccc2C(C)C)cc1S(=O)(=O)Nc1ccc(Cl)cc1` [Compound 496], the EC50 lay within 20 to 100 µM and the maximum response (Emax) was in the range of 160 to 199%.

For `COc1ccc(NC(=O)c2csc(-c3ccccc3)n2)cc1S(=O)(=O)Nc1ccc(Cl)cc1` [Compound 487], the EC50 lay in the range of 10 to 20 µM and the maximum response (Emax) is 160 to 199%.

`COc1ccc(NC(=O)c2cnc(-c3ccccc3)[nH]2)cc1S(=O)(=O)Nc1ccc(Cl)cc1` [Compound 404]: the EC50 is < 10 µM and the maximal response (Emax) was 160 to 199%.

Regarding `COc1ccc(NC(=O)c2nnc(-c3ccccc3)o2)cc1S(=O)(=O)Nc1ccc(Cl)cc1` [Compound 424], the EC50 is < 10 µM and the Emax lay in the range of 123 to 159%.

With `COc1ccc(NC(=O)c2cnc(C(F)(F)F)[nH]2)cc1S(=O)(=O)Nc1ccc(F)cc1C` [Compound 348], the EC50 was in the range of 20 to 100 µM and the Emax was 200 to 300%.

As for `COc1ccc(NC(=O)c2cnc(-c3ccccc3)[nH]2)cc1S(=O)(=O)Nc1ccccc1C` [Compound 201], the EC50 was in the range of 10 to 20 µM and the Emax was 160 to 199%.

Regarding `Cc1ncoc1C(=O)Nc1cccc(S(=O)(=O)N2CCCc3cc(Cl)ccc32)c1` [Compound 429], the EC50 fell in the range of 10 to 20 µM and the Emax is 200 to 300%.

Take `Cc1ccc2c(c1)OCCN2S(=O)(=O)c1cccc(NC(=O)c2ncco2)c1` [Compound 324]: the EC50 is 20 to 100 µM and the Emax lay within 200 to 300%.

As to `COc1ccc(NC(=O)c2ncc(-c3ccccc3)s2)cc1S(=O)(=O)Nc1c(C)cccc1C` [Compound 449], the EC50 was in the range of 10 to 20 µM and the Emax fell in the range of 123 to 159%.

Take `Cc1ccc2c(c1)CCN2S(=O)(=O)c1cccc(NC(=O)c2ocnc2C)c1` [Compound 407]: the EC50 fell in the range of 20 to 100 µM and the Emax lay within 200 to 300%.

As to `COc1ccc(NC(=O)c2nc(-c3ccccc3)ccc2C)cc1S(=O)(=O)Nc1ccc(Cl)cc1` [Compound 565, N-(3-(N-(4-chlorophenyl)sulfamoyl)-4-methoxyphenyl)-3-methyl-6-phenylpicolinamide], the EC50 is 20 to 100 µM and the Emax was 123 to 159%.

With `CCc1ccc(NC(=O)c2ncn(C)n2)cc1S(=O)(=O)Nc1ccc(Cl)cc1` [Compound 575], the 50% effective concentration (EC50) lay within 20 to 100 µM and the Emax fell in the range of 160 to 199%.

Regarding `COc1ccc(NC(=O)c2ncco2)cc1S(=O)(=O)Nc1ccc(C)cc1` [Compound 307], the EC50 lay in the range of 20 to 100 µM and the Emax was 160 to 199%.

`O=C(Nc1ccc(OCCCCCCO)c(S(=O)(=O)Nc2ccc(Br)cc2)c1)c1cnc[nH]1` [Compound 274]: the EC50 lay in the range of 10 to 20 µM and the Emax was 200 to 300%.

For `COc1ccc(NC(=O)c2cnc[nH]2)cc1S(=O)(=O)N(CCCCCCO)c1ccc(Br)cc1` [Compound 246, N-(3-(N-(4-bromophenyl)-N-(6-hydroxyhexyl)sulfamoyl)-4-methoxyphenyl)-1H-imidazole-5-carboxamide], the EC50 lay within 20 to 100 µM and the Emax lay in the range of 200 to 300%.

For the compound `O=C(Nc1cccc(S(=O)(=O)N2CCOc3cc(Cl)ccc32)c1)c1ncc(-c2ccccc2)o1` [Compound 477], the EC50 was < 10 µM and the Emax was 160 to 199%.

`COc1ccc(NC(=O)c2cnccc2C(C)C)cc1S(=O)(=O)Nc1ccc(Br)cc1` [Compound 493]: the EC50 is 20 to 100 µM and the maximum response (Emax) lay within 160 to 199%.

In the case of `CC(=O)c1c(C)[nH]c(C(=O)Nc2cccc(S(=O)(=O)N3CCCC3)c2)c1C` [Compound 148], the EC50 lay within 10 to 20 µM and the Emax fell in the range of 200 to 300%.

For `O=C(Nc1cccc(S(=O)(=O)N2CCOc3ccccc32)c1)c1ncco1` [Compound 372], the EC50 is 20 to 100 µM and the Emax was 160 to 199%.

Turning to `COc1ccc(NC(=O)c2ncc(C(F)(F)F)[nH]2)cc1S(=O)(=O)Nc1ccc(Br)cc1` [Compound 229, N-(3-(N-(4-bromophenyl)sulfamoyl)-4-methoxyphenyl)-5-(trifluoromethyl)-1H-imidazole-2-carboxamide], the EC50 is 20 to 100 µM and the Emax fell in the range of 160 to 199%.
